Our source for the MIC99 values is ChEMBL document CHEMBL5620427, “Recent advances in Fragment-based strategies against tuberculosis” (Eur J Med Chem, 2023).

In this assay the test system is Mycobacterium tuberculosis variant bovis. Put plainly: Antibacterial activity against Mycobacterium bovis BCG ATCC 35734 assessed as bacterial growth inhibition measured after 3 weeks by resazurin dye based assay. Format: functional. The conditions noted are these: BCG ATCC 35734, 504 h. A general note: Alamar Blue is a resazurin reagent that responds to reducing activity.

Turning to `NS(=O)(=O)c1cc(Cl)cc(Cl)c1`, the MIC99 is below 56 µM. In the case of `CCOC(=O)c1cc(Cl)c(O)c(Cl)c1`, the MIC99 was below 53 µM.

As usually defined, the MIC99 is an inhibitory concentration at the 99% level, which refers to growth in some studies and to a panel of isolates in others.
